According to US6660804B1, “Cyclodextrin polymers and/or cyclodextrin derivatives with complexing properties and ion-exchange properties and method for the production thereof” (Universite des Sciences et Technologies de Lille, priority 1999, dated 2003):

Columns and labels:
[1] = Diffusion of CI Basic Red 22 through 12000-14000 d dialysis membrane (complexing); format: physicochemical; settings: 50 ml 10^-4 M dye plus 0.2837 g additive inside membrane, 250 ml distilled water outside, after 5 hours of dialysis; dye alone 0.2722
Description: Three solutions of 50 ml of 10^−4 M CI Basic Red 22 basic dye were introduced into 12000-14000 d dialysis membranes. The first fraction contained the dye alone; the second contained the dye and 0.2837 g of β cyclodextrin (i.e., 5×10^−3 mol/l); the third contained the dye and 0.2837 g of soluble cyclodextrin copolymer obtained using the method described in Example 1. The three membranes with the three different dye solutions were each immersed in 250 ml of distilled water. Diffusion of the dye from the interior of the membrane into the distilled water surrounding the membrane was monitored by determining the absorbance of the external solution at 540 nanometers (nm). The absorbance values obtained for the external solutions for the three fractions after 5 hours of dialysis were 0.2722 for the first fraction, 0.1873 for the second fraction and only 0.0237 for the third fraction.

[2] = Diffusion of 2-naphthol through 12000-14000 d dialysis membrane (complexing); format: physicochemical; settings: 50 ml 10^-3 M 2-naphthol plus 0.2837 g β cyclodextrin or 0.3317 g copolymer inside membrane, 250 ml distilled water outside, after 76 hours of dialysis; 2-naphthol alone 0.2865
Description: Three solutions of 50 ml of 10−3 M 2-naphthol were introduced into 12000-14000 d dialysis membranes. The first fraction contained 2-naphthol alone; the second contained the dye and 0.2837 g of β cyclodextrin (i.e., 5×10^−3 mol/l); the third contained the dye and 0.3317 g of the soluble cyclodextrin copolymer obtained using the method described in Example 1. The three membranes with the three different dye solutions were each immersed in 250 ml of distilled water. Diffusion of the dye from the interior of the membrane into the distilled water surrounding the membrane was monitored by determining the absorbance of the external solution at 327 nm. The absorbance values obtained for the external solutions for the three fractions after 76 hours of dialysis were 0.2865 for the first fraction, 0.3030 for the second fraction and only 0.2574 for the third fraction.

With `OC[C@H]1O[C@@H]2O[C@H]3[C@H](O)[C@@H](O)[C@@H](O[C@H]4[C@H](O)[C@@H](O)[C@@H](O[C@H]5[C@H](O)[C@@H](O)[C@@H](O[C@H]6[C@H](O)[C@@H](O)[C@@H](O[C@H]7[C@H](O)[C@@H](O)[C@@H](O[C@H]8[C@H](O)[C@@H](O)[C@@H](O[C@H]1[C@H](O)[C@H]2O)O[C@@H]8CO)O[C@@H]7CO)O[C@@H]6CO)O[C@@H]5CO)O[C@@H]4CO)O[C@@H]3CO` [β cyclodextrin] the “absorbance of the external solution at 540 nm” value [1] was 0.1873 and the “absorbance of the external solution at 327 nm” value [2] was 0.3030.
